For series [1] the following is noted: in vivo; cited from earlier work.
In series [2] the test system is domestic cats. The conditions noted are these: 48 to 50 mg per capita (averaging 10 to 14 mg/kg), one hour after administration.
Text: Based on the data obtained by observing animals under stress, the most frequent symptoms of anxiety and fear common to various stressful situations were selected to assess the severity of their abnormal behavior. They included vocalizing, hypersalivation, overgrooming, abnormal (higher or lower) motion activity, soiling (urination and/or defecation), and 'destructive behavior' consisting in signs of aggression, attempts at damaging ambient objects, etc. For each symptom (based on its severity), points from 0 to 2 were given, which subsequently were totalized individually for each animal or, where appropriate, for a whole group of animals to determine an average value.
For each of the 6 symptoms (based on its severity), points from 0 to 2 were given, which subsequently were totalized individually for each animal. Therein, a total score of more than 6 points (out of possible 12) was considered to be indicative of an apparent severity of abnormal (changed) behavior.
To carry out the experiment, 6 domestic cats of different sex and age, weighing 3.5 to 5 kg, were selected, who, according to their owners, felt bad during transportation, showing various forms of abnormal behavior. Herein, the actual presence of stress symptoms and their severity for each cat were assessed from video data provided by their owners. […]
The test system of series [3] is male cats. The source says: The trials enrolled apparently healthy entire animals (8 male cats and 8 female cats) aged 2 to 6 years, weighing 3 to 4 kg, kept in foster care at BIM Animal Shelter. The females were introduced into the study as they went into estrus. Table XII. Registration details of the cats enrolled in the experiment
Male cats with pronounced signs of heat were placed in individual cages in a dedicated room where 2 female cats in heat were present (in separate cages in the same room). TR Succinate in the tablet form (for the experimental animals) and placebo tablets (for the control animals) were given in accordance with the same design as in the experiment with female cats. Follow-up observation over the animals was carried out in a similar manner.

Series [4] concerns female cats. The experiment in a line: Suppression of behavioral signs of heat in female cats.
Series [5] has as its system White Mice. The experiment in a line: Acute oral toxicity testing, intragastric administration (Miller and Tainter). Conditions: for % of deaths / Number of Animals dead: 10 per group, 14 days follow-up.
Experimental: (§1) This parameter was evaluated on mice and rats in accordance with a conventional procedure for acute toxicity testing of medicinal products (Example 2).
(§2) In each case, 7 experimental groups and 1 control group of white rats and 7 experimental and 1 control groups of white mice, 10 individuals in each, were formed. The product was administered via an intragastric tube in accordance with the design described in Table I. 1% starch gel was used as the suspending agent.
(§3) Follow-up period was 14 days. The observation included general condition, behavior, feed and water intake, manifestation of intoxication symptoms, possible deaths.
Series [6] deals with White Rats. Described as above. Conditions: for % of deaths / Number of Animals dead: 10 per group, 14 days follow-up.
Experimental: as §1, §2, §3
[7] abbreviates: one 100 mg tablet (24 mg active ingredient, 6-8 mg/kg) oral, individual male cats.
Setting [8] is: female and male cats in heat, single dose 6-8 mg/kg.
Setting [9] is: one 100 mg tablet (24 mg active ingredient, 6-8 mg/kg) oral, individual female cats.
The mark [10] stands for this setting: substance, intragastric, in 1% starch gel.
[11] abbreviates: substance, intragastric, in 1% starch gel, 20160 min.

“And” between values parts separate entries of the source, which are not always exact repeats. Identical values can stand only once. Counter-ions that a name gives are not always drawn.

The values that follow come from EP3922250A1, “COMPOSITION FOR CORRECTING THE BEHAVIOUR OF CATS AND DOGS” (priority 2019, dated 2021).

For the molecule `O=c1n(CCCN2CCN(c3cccc(Cl)c3)CC2)nc2ccccn12` [TR, Trazodone], in series [1], the “amount of plasma protein binding” value is recorded as 89-95%, the “excreted from the body via the kidneys” value is on record as 75%, the “excreted unchanged with bile” value is given as “about 20%” and the “time to reach complete excretion of the substance” value is 98 h.

Regarding `O=c1n(CCCN2CCN(c3cccc(Cl)c3)CC2)nc2ccccn12` [Trazodone Hydrochloride, reference compound], the “sedative action onto the animals” value in series [2] is given as “pronounced sedative actions of comparable efficacy”.

Take Trazodone Succinate: in series [3] (in vivo), the abnormal behaviors entry is “no abnormal behaviors were observed”. The “Total intensity of heat signs after the product administration (points) after 30 minutes” value in series [3] (setting [7]) is 5 points (3×) and 6 points and 4 points (2×); in series [4] (setting [9]), 5 points (3×) and 6 points and 4 points (2×). Moreover, the “Total intensity of heat signs after the product administration (points) after 3 hours” value is 1 points (4×) and 2 points (2×) in series [3] (setting [7]); 1 points (5×) and 2 points in series [4] (setting [9]). Besides, the “Total intensity of heat signs after the product administration (points) after 6 hours” value was 2 points (4×) and 1 points (2×) in series [3] (setting [7]); 2 points (4×) and 1 points (2×) in series [4] (setting [9]). Moreover, the “side effects, such as pronounced hypnotic action, atony, slowness or dystaxia” value in series [4] (experimental group female cats, during the experiment) is “No side effects”. Besides, in series [4] (setting [8]), the “start of the sedative action after the product administration” value is 30 min. Also, the “time the sedative action remained” value in series [4] (setting [8]) is “at least 6 hours”. Moreover, in series [4] (setting [8]), the “time to maximum sedative action (substantially complete disappearance of estrous behavior signs)” value was 1 h. For the same molecule, the “Total intensity of heat signs after the product administration (points) after 1 hour” value in series [4] (setting [9]) was 0 points (4×) and 1 points (2×). The “Total intensity of heat signs after the product administration (points) after 8 hours” value in series [4] (setting [9]) was 4 points (2×) and 1 points (3×) and 5 points. The “% of deaths” value was found to be 0% in series [5] (400 mg/kg intragastric); 10.0% in series [5] (800 mg/kg intragastric); 70.0% in series [5] (1600 mg/kg intragastric); 100.0% in series [5] (2000 mg/kg intragastric); 100.0% in series [5] (2500 mg/kg intragastric); 100.0% in series [5] (3000 mg/kg intragastric). The “% of deaths” value in series [6] (400 mg/kg intragastric) is reported as 0%; in series [6] (800 mg/kg intragastric) it was 20.0%; in series [6] (1600 mg/kg intragastric), 40.0%; in series [6] (2700 mg/kg intragastric) it was 70.0%; in series [6] (3000 mg/kg intragastric), 100.0%; in series [6] (3500 mg/kg intragastric) it was 100.0%. The “Number of Animals dead” value stood at 0 in series [5] (400 mg/kg intragastric); 1 in series [5] (800 mg/kg intragastric); 7 in series [5] (1600 mg/kg intragastric); 10 in series [5] (2000 mg/kg intragastric); 10 in series [5] (2500 mg/kg intragastric); 10 in series [5] (3000 mg/kg intragastric). Besides, the “Number of Animals dead” value in series [6] (400 mg/kg intragastric) was determined as 0; in series [6] (800 mg/kg intragastric) it was 2; in series [6] (1600 mg/kg intragastric) it was 4; in series [6] (2700 mg/kg intragastric), 7; in series [6] (3000 mg/kg intragastric) it was 10; in series [6] (3500 mg/kg intragastric), 10. Moreover, the “Hazard class according to GOST 12.1.007-76” value in series [5] (classified from the LD50 values in mice and rats) was “Hazard Class III”. The LD16 in series [5] (setting [10]) was found to be 840 mg/kg; in series [6] (setting [10]), 760 mg/kg. Moreover, the LD84 in series [5] (setting [10]) is 1690 mg/kg; in series [6] (setting [10]), 2730 mg/kg. Moreover, the figures for the LD100 in series [5] (setting [10]) and in series [6] (setting [10]) were 1935 mg/kg and 2945 mg/kg, respectively. Moreover, the LD50 is listed as 1200 (1091.6-1308.4) mg/kg in series [5] (setting [11]) and 2300 (2079.5-2520.5) mg/kg in series [6] (setting [11]). The MTD in series [5] (setting [11]) and in series [6] (setting [11]) was 400 mg/kg throughout. The “sedative action onto the animals” value in series [2] is “pronounced sedative actions of comparable efficacy”.
